Data from patent publication US20180221306A1, “PHARMACEUTICAL COMPOSITIONS OF 5-HYDROXY-2-METHYLNAPHTHALENE-1,4-DIONE” (PellFiCure Pharmaceuticals, Inc., priority 2016, published 2018).
Read-outs that look alike come from different tables or passages of the source. Marks after values point to notes of the source that are not given here.

Tests used:
TRAMP-C2 tumor cells = assay: Orthotopic prostate cancer survival study, TRAMP-C2 cells in C57BL/6 mice; format: in vivo, mouse; settings: 1 mg/kg per oral plus castration; p<0.001
Method: Orthotopic injection of PTEN-P2 and TRAMP-C2 for survival studies: Mice were anaesthetized and an incision was made through the skin and peritoneum. A total of 30,000 cells were suspended in Matrigel and slowly injected into the dorsal lobe of the prostate using a 30-gauge needle. Matrigel was used to prevent the leakage of cells out of the site of injection. A Q-tip was held over the injection site for 1 min to prevent bleeding and spill after removal of the needle. The abdominal wall was closed by surgical silk sutures.
Fox1/Nu or C57BL/6J mice were used as recipients for PTEN-P2 and TRAMP-C2 cells, respectively. Mice were surgically castrated 6 weeks later, when tumors were established, and Compound I treatment was initiated 4-5 days later. The number of days mice lived following treatment initiation was recorded for each animal. A few mice were found dead upon daily inspection, while others were euthanized in agreement with our IACUC regulations, including mice showing weight losses of more than 15% and mice showing signs of pain though posture and lack of grooming were euthanized.
A second study, shown in FIG. 6, used cells derived from the transgenic adenocarcinoma of the mouse prostate (TRAMP) model. The TRAMP model was generated through prostate-specific expression of the large T antigen of SV40 in the prostate epithelium. […]

[1] = Water uptake of Compound I (Karl Fischer coulometric analysis); format: physicochemical
Method: For the purposes of establishing material handling practices, Compound I was evaluated for water uptake in various controlled conditions. Compound I was exposed to 25° C./60% relative humidity and 40° C./75% relative humidity for up to one day. Approximately 200 mg of Compound I was accurately weighed into separate glass vials and placed uncapped in stability chambers. At various time points, the vials were removed, stoppered and crimped, and the water content for Compound I powder was determined by standard Karl Fischer coulometric analysis.

Sprague Dawley rats [2] = assay: 7-day dose range-finding study; format: in vivo, rat
Method: (§1) A single-dose maximum tolerated dose (MTD) phase A study and a 7-day dose range-finding (DRF) phase B study were conducted in Sprague Dawley rats by MPI Research, Inc. (Mattawan, Mich.). A total of 62 males and 62 females rats were assigned to the study, which was performed in accordance with all current regulations. Animals were housed in standard conditions and had ad libitum access to food and water. Healthy animals of each sex were randomized into treatment groups using a standard, by weight, measured value randomization procedure. Compound I was administered by oral gavage, once at each dose level in Phase A (acute), or once daily for 7 consecutive days in Phase B. Oral gavage was chosen because the oral route is the intended route of administration in humans. Animals were observed twice daily for morbidity and mortality and were euthanatized for humane reasons where appropriate. An initial starting dose of 50 mg/kg was used for Phase A. Subsequent doses were increased or decreased based on the response to the preceding dose. […] The dose levels used in Phase B were based on the MTD identified in Phase A.
Daily doses of 0 (vehicle), 10, 30 and 100 mg/kg were then administered to Sprague Dawley rats by oral gavage for seven days for the dose-range finding study. […] Adverse events included decreased body weight or decreased body weight gain, decreased food consumption, adverse effects on various pathological parameters and Compound I-related macroscopic and microscopic abnormalities in multiple organs. […] The toxicity profile of Compound I is encouraging considering that the drug is effective in rodents at much lower doses. This toxicity-to-effectiveness dose ratio provides, potentially, a wide therapeutic window.

Sprague Dawley rats [3] = assay: Single-dose maximum tolerated dose (MTD) study; format: in vivo, rat; settings: 200 or 300 mg/kg, once, oral gavage
Method: as §1
(§2) A single-dose maximum tolerated dose (MTD) study and a seven consecutive day dose-range finding study were carried out in Sprague Dawley by orally administering a formulation of Compound I in Carrier A. In the MTD phase, doses of 50, 100, 200 and 300 mg/kg were administered once to Sprague Dawley rats by oral gavage. The single-dose MTD of Compound I in rats was found at 100 mg/kg.

[4] = Single-dose maximum tolerated dose (MTD) study; format: in vivo, rat; settings: both sexes, Sprague Dawley, rat, in vivo; rats, oral gavage, Compound I in Carrier A
Method: as §1, §2

[5] = 5 mg/g

## CC1=CC(=O)c2c(O)cccc2C1=O [Compound I, 5-hydroxy-2-methylnaphthalene-1,4-dione]
5 mg/g
  Stability of formulations of Compound I in PEG: 50%
3 day, 4.6 mg/mL
  Stability of the formulation in Carrier A (sesame oil), Potency as Amount: 4200 µg/mL
TRAMP-C2 tumor cells
  Longer survival of 50% of the combination-treated mice vs castration alone: 200 days
[1]; 25° C./60% RH, 0 hours
  Water content: 0.023%
[1]; 25° C./60% RH, 5 hours
  Water content: 0.026%
[1]; 25° C./60% RH, 24 hours
  Water content: 0.029%
[1]; 25° C./60% and 40° C./75% relative humidity, up to one day
  Water content of Compound I powder (in words): anhydrous
[1]; 40° C./75% RH, 0 hours
  Water content: 0.023%
[1]; 40° C./75% RH, 5 hours
  Water content: 0.027%
[1]; 40° C./75% RH, 24 hours
  Water content: 0.031%
[1]; at up to 75% relative humidity
  Sensitivity to water uptake: not sensitive to water uptake
Sprague Dawley rats [2]; 10 mg/kg/day
  Toxicity observed in rats: Very little toxicity
Sprague Dawley rats [2]; 10 mg/kg/day low-dose level
  Compound I-related effects: limited to minimal changes noted in the teeth of one male
Sprague Dawley rats [2]; 30 mg/kg/day, both sexes
  Microscopic findings: Minimal to mild non-adverse microscopic abnormalities in various organs
Sprague Dawley rats [2]; 30 mg/kg/day, oral gavage, seven days
  Clinical chemistry findings: minimal increases in mean serum total bilirubin concentration and alkaline phosphatase activity
Sprague Dawley rats [2]; 100 mg/kg/day, beginning on day 3, early termination of all animals on Day 5
  Morbidity/mortality: Morbidity/mortality occurred both in male and female rats
Sprague Dawley rats [3]
  Adverse clinical events: decreased activity, abnormal body carriage and piloerection
  Mortality after acute administration: unscheduled deaths in male rats on Days 1 and 2 but not in females
[4]
  MTD: 100 mg/kg
[5]; 0 week
  Solution Stability in Aqueous Media, % Potency: 92.86%
[5]; 0 week, pH 1
  Solution Stability in Aqueous Media, % Potency: 99.62%
[5]; 0 week, pH 2
  Solution Stability in Aqueous Media, % Potency: 98.23%
[5]; 0 week, pH 3
  Solution Stability in Aqueous Media, % Potency: 96.53%
[5]; 0 week, pH 4
  Solution Stability in Aqueous Media, % Potency: 96.76%
[5]; 0 week, pH 5
  Solution Stability in Aqueous Media, % Potency: 97.34%
[5]; 0 week, pH 6
  Solution Stability in Aqueous Media, % Potency: 94.27%
[5]; 0 week, pH 7
  Solution Stability in Aqueous Media, % Potency: 87.84%
[5]; 0 week, pH 8
  Solution Stability in Aqueous Media, % Potency: 78.28%
[5]; 0 week, pH 9
  Solution Stability in Aqueous Media, % Potency: 85.90%
[5]; 0 week, pH 10
  Solution Stability in Aqueous Media, % Potency: 86.55%
[5]; 1 week, pH 7
  Solution Stability in Aqueous Media, % Potency: <10%
[5]; 1 week, pH 8
  Solution Stability in Aqueous Media, % Potency: <10%
[5]; 2 week, pH 7
  Solution Stability in Aqueous Media, % Potency: <10^‡ %
[5]; 2 week, pH 8
  Solution Stability in Aqueous Media, % Potency: <10^‡ %
[5]; 2 week, pH 9
  Solution Stability in Aqueous Media, % Potency: <10^‡ %
[5]; 2 week, pH 10
  Solution Stability in Aqueous Media, % Potency: <10^‡ %
[5]; buffer, 168 h, pH 7
  Initial Compound I remaining in the solution: less than 10%
